Test results from patent US10906977B2, “Enhancing the therapeutic activity of immune checkpoint inhibitor” (Maine Medical Center Research Institute, priority 2016, dated 2021).

Assays:
[1] = test system: endothelial cells (HUVECs); assay: Actin stress fiber formation in endothelial cells attached to collagen peptides; format: cell-based, human; settings: FIG. 7G
Protocol: CAMs examined for accumulation of granulation tissue were harvested, fixed in 4% PFA and paraffin embedded and sectioned (4 μm) and stained with Giemsa. CAM tissues analyzed via immunofluorescence were harvested, embedded with OCT, snap frozen and sectioned ([…]). Frozen sections were fixed in 50% methanol/50% acetone, air dried and blocked with 2.5% BSA for 1 h at 37° C. For expression of the XL313 and XL166 epitopes as well as monocyte/macrophages, FGF-2 stimulated CAM tissues were stained with Mabs XL313, XL166 (50 μg/ml) or KUL1 (1:250) and then incubated with Alexa-488 labeled secondary antibodies (1:2000 dilution). Co-staining of monocytes/macrophages and the Mab XL313 reactive epitope in FGF-2 stimulated CAMs was performed by sequential staining by first probing with KUL1 (1:250) and then with a biotinconjugated Mab XL313 (50 μg/ml), and with secondary antibodies Alexa-488 and streptavidin Alexa-594 (1:2000) respectively. Using a similar strategy, sections of RGD peptide-treated CAM tissues were analyzed for phosphorylated-P38MAPK in angiogenic vessels by co-incubation of anti-phospho-P38MAPK (1:50) and anti-vWf (1:500) antibodies. […] Cells were allowed to attach for 15, 30, or 60 min in the absence of serum and were fixed with 4% PFA. Fixed cells were washed and blocked with 2.5% BSA and stained with anti-YAP (1:200) and phalloidin (1:500). […]

[2] = test system: chick chorioallantoic membrane (CAM); assay: Chick CAM inflammation induced by soluble RGD collagen peptides; format: in vivo; settings: FIG. 5D
Protocol: The chick chorioallantoic membrane (CAM) assays were carried out with some modifications (19). For all experiments CAMs of 10-day-old chick embryos obtained from Charles River (North Franklin, Conn.) were separated from the shell membrane. Filter discs either non-treated (inflammation assays) pretreated (angiogenesis assays) with cortisone acetate (3.0 mg/ml) containing RPMI only or FGF-2 (40 ng). CAMs were either non-treated or treated topically with Mab XL313, XL166 or a non-specific control antibody (10 μg/embryo every 24 h for three consecutive treatments). […] At the end of the incubation period the embryos were sacrificed and the CAM tissues were analyzed. Angiogenesis was quantified by counting the number of angiogenic branching blood vessels within the area of the filter disc. The angiogenic index was determined by subtracting the mean number of blood vessel branch points from untreated CAMs from each experimental condition. Eight to twelve embryos were used per condition and experiments were repeated at least three times.

[3] = test system: T-cell (Jurkat); assay: T-cell migration on denatured collagen type-IV (transwell); format: cell-based, human; settings: P2 1.0 ug/ml; FIG. 34
Protocol: Membranes of transwell migration chambers were coated with denatured collagen type-IV to mimic the altered basement membrane in tumor vessels. Left). T-cell (Jurkat) migration in the presence or absence of the cryptic collagen peptide P2 (1.0 ug/ml) and/or Mab XL313 and non-specific control antibody (50 μg/ml). Right). T-cell (Jurkat) migration in the presence or absence of Raw macrophage concentrated conditioned medium (CM) and/or Mab XL313 and non-specific control antibody (50 μg/ml). Data bars represent mean cell migration+SE from triplicate wells.

[4] = test system: HUVEC; assay: Endothelial cell proliferation with soluble RGD peptides; format: cell-based, human; settings: 100 ng/ml, 24 hours; FIG. 8C
Protocol: (§1) HUVECs (WT, shYAP1 or control transfected) or HRMVECs were plated at 2,000 cells per well with complete EGM-2 media containing 2.0% FBS in the absence or presence of P-1, P-2 or P-C (100 ng/ml) and allowed to grow for 24 hours. Cell growth was monitored using a BrdU or MMT assay kits according to manufacturer's instructions. All assays were completed at least three times in triplicate wells.

[5] = test system: HRMVEC; assay: as above; format: cell-based, human; settings: 100 ng/ml, 24 hours; FIG. 8D
Protocol: as §1

[6] = test system: Fak; assay: Fak phosphorylation in endothelial cells attached to collagen peptides; format: cell-based, human; settings: serum free conditions
Protocol: Whole cell and CAM tissue lysates were collected in RIPA buffer supplemented with 1× protease inhibitor and 1× phosphatase inhibitor and were run on polyacrylamide gels using denaturing conditions. Prior to loading the gels, 6× sample buffer was added to each of the lysates (final concentration 1×) and boiled for five minutes. Twenty to 50 μg of total protein were loaded into each lane. For detection of proteins larger than 50 kD, 10% gels were used; for proteins smaller than 50 kD 15% gels were used. Gels were run at 60 volts (v) until the dye front passed through the stacking gel, and then the voltage was increased to 100V for the remainder of the separation. Precision Plus protein standards (Bio-Rad) were used to visualize migration. Protein was transferred to nitrocellulose membranes using a wet tank system and blocked for 1 h using 10% non-fat dried milk in tris-buffered saline with 0.01% Tween-20 (TBS-T). […] Western blot bands were quantified using Image J software based on pixel intensity.

[7] = biological target: T1, integrin αvβ3 (Homo sapiens, UniProt P05106+P06756); assay: Solid phase ELISA, recombinant integrin αvβ3 binding to immobilized peptide P-2; settings: peptide immobilized 100 μg/ml; FIG. 30
T1 construct: purchased R&D Systems (Minneapolis, Minn.)
T1 sequence (P06756 31-992 limits assumed): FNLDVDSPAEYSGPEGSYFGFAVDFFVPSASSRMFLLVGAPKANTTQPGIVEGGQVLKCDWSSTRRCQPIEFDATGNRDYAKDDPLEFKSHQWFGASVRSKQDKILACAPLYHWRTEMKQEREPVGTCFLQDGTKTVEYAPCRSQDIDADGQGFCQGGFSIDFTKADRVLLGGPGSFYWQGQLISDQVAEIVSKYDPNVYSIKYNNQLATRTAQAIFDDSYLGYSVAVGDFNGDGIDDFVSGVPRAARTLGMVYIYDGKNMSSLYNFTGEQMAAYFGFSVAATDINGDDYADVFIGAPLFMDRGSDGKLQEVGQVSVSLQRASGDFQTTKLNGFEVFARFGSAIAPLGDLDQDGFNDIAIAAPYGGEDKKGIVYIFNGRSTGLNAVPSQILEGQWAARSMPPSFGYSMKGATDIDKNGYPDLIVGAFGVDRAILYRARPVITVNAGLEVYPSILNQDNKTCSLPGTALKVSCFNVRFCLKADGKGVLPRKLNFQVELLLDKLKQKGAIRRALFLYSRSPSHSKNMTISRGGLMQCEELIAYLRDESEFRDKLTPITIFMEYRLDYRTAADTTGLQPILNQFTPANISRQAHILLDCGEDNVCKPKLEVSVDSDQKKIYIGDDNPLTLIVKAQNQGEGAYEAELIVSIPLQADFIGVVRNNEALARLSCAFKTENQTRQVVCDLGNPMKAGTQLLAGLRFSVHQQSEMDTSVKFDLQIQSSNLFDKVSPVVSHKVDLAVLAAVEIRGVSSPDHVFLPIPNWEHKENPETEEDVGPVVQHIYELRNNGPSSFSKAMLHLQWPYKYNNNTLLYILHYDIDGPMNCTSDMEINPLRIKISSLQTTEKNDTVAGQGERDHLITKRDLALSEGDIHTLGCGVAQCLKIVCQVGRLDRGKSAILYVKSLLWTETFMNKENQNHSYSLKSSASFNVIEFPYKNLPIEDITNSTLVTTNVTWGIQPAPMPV
T1 sequence (P05106 27-718 limits assumed): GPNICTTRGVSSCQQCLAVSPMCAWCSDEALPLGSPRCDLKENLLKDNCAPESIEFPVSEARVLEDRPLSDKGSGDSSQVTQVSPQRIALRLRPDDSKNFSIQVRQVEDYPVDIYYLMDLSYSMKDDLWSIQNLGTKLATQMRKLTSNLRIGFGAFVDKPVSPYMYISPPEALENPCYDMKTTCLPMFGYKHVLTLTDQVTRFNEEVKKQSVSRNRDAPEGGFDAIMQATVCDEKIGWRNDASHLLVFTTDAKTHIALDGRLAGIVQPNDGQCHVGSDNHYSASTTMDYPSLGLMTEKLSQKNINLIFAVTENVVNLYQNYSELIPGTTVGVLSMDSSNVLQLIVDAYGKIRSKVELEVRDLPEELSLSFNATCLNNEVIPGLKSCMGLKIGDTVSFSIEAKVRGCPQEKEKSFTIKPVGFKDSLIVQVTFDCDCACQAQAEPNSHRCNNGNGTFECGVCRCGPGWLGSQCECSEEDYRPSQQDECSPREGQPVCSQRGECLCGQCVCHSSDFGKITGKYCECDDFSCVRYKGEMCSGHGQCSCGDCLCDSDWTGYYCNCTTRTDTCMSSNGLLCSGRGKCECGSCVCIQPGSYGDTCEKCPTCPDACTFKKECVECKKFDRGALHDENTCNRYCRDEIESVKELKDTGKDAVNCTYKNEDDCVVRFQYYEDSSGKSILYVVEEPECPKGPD
Protocol: The cryptic collagen peptide P-2 was immobilized (100 μg/ml) on microtiter wells and increasing concentrations of recombinant integrin αvβ3 was added and integrin binding was quantified. Data bars indicate mean integrin binding±standard deviation from triplicate wells.
The cryptic collagen peptide P-2 was immobilized (100 μg/ml) on microtiter wells and recombinant integrin αvβ3 was added and it was allowed to bind in the presence (50 μg/ml) or absence of Mab X1313 or control antibody (Mab XL166 directed to other collagen RGD peptides). Data bars indicate mean integrin binding±standard deviation from triplicate wells.

Sequence: CQGPRGDKGEC [Mab P-2]
- actin stress fiber formation as compared to P-1 [1]: accelerated actin stress fiber formation
- CAM inflammation following stimulation with peptide [2]: induced inflammation to nearly that of FGF-2 stimulation
- effect on T-cell migration [3]: inhibitory effects
- HUVEC growth with soluble peptide [4]: enhanced endothelial cell growth
- HRMVEC growth with soluble peptide [5]: enhanced endothelial cell growth
- Fak phosphorylation following ligation of peptide [6]: Minimal Fak phosphorylation
- binding of integrin receptor αvβ3 to peptide [7]: dose-dependently binds
